Experimental data as given in patent publication US20050042213A1, “Methods and pharmaceutical compositions for modulating heparanase activation and uses thereof” (InSight Biopharmaceuticals Ltd., priority 2003, published 2005).
Where two headings read alike, the source gives them in different places. Where a SMILES comes first, the peptide text is derived from it. Where no end group is shown, it is not given here. [ ]: non-standard residue; d: D form. The star is where a group is joined. Sta = CC(C)C[C@H](N)[C@@H](O)CC(=O)O; Isovaleryl = CC(C)CC(=O)*

Experiments:
Cathepsin B = conditions: value reported in the literature (M. Murata et al., FEBS Lett., 280, 307, 1991); cited from earlier work
pro-heparanase (H60) [1] = molecular target: T1, pro-heparanase (H60) (Homo sapiens, UniProt Q9Y251, K307R); test: Processing and activation of pro-heparanase in vitro with cathepsin B and D in the presence of heparin (Western blot, DMB assay); assay type: biochemical; conditions: cathepsin B and/or cathepsin D; for activation of pro-heparanase in vitro (heparanase activity): heparin-sepharose
T1 sequence (Q9Y251 36-543 K307R): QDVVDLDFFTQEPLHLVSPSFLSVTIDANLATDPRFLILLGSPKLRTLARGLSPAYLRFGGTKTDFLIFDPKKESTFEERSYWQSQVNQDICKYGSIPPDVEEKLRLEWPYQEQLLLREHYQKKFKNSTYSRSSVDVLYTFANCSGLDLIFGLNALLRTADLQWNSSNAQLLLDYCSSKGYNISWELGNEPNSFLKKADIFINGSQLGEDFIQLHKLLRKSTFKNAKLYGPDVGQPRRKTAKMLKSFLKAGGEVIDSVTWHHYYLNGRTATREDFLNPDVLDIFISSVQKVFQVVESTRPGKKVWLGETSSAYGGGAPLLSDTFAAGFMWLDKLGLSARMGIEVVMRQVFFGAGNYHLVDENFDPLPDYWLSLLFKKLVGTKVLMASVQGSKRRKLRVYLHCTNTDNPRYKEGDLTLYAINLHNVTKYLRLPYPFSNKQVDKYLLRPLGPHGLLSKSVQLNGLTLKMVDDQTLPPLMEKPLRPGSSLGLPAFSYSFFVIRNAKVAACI
Description: Western blot analysis—Western blot analysis was performed using rabbit anti-heparanase polyclonal antibodies as described in U.S. Pat. Nos. 6,177,545; 6,531,129; and 6,562,950.
Following a 17 hours incubation at room temperature, reaction products were filtered to a new plate and quantified using di-methyl-methylene-blue, as described in U.S. Pat. No. 6,190,875.
Assay mixtures contained heparin (Sigma, H3393) or heparinomimetic molecules ethane-1,2-disulfonic acid (Sigma, E2269) and heparin disaccharide IVA (Sigma, H0895) for western blot analysis or heparin sepharose beads for activation assays, in 200 mM acetate buffer, pH 5.5, 4 mM EDTA and 8 mM DTT, with either Cathepsin B, Cathepsin D or both. Following a 17 hours of incubation at room temperature, reaction products were examined by western blot analysis or filtered to a new plate and quantified using di-methyl-methylene-blue, as described in U.S. Pat. No. 6,190,875 for activation assay.

293 cell extract = test: Cleavage of Z-Pro-Lys-Lys-Glu-AMC (Peptide 1) by 293 cell extract and its inhibition by protease inhibitors; assay type: biochemical, human; set-up: % Inhibition: concentration or dose not given beside the values; conditions: inhibition of Z-Pro-Lys-Lys-Glu-AMC cleavage by 293 cell extract
Description: Following a 20 minutes incubation at 37° C., fluorescence released due to proteolytic activity was determined using a BMG POLARstar™ Galaxy fluorometer: excitation at 390 nm and emission at 460 nm.

heparanase (H53) = molecular target: T2, heparanase (H53) (Homo sapiens, UniProt Q9Y251, K307R); test: Heparanase activity inhibition (H53), DMB assay; assay type: biochemical; conditions: for IC50: heparanase activity inhibition (H53), NI = no inhibition
T2 sequence (Q9Y251 158-543 K307R limits assumed): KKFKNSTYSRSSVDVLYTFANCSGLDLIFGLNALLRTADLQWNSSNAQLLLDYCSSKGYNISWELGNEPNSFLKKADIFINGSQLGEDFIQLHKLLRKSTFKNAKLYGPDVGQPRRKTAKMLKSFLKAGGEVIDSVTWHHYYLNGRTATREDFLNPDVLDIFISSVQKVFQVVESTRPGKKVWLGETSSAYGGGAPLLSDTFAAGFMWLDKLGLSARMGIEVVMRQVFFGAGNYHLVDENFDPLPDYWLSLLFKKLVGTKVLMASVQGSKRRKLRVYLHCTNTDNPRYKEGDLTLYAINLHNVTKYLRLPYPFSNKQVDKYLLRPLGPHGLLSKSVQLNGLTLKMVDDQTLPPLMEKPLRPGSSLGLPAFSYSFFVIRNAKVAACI
T2 sequence (Q9Y251 36-109 limits assumed): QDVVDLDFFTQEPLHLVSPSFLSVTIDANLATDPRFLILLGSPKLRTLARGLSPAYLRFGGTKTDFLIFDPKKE
Description: At the end of the incubation, the cells were lysed by three consecutive cycles of freezing and thawing in a −80° C. Freezer and a 37° C. shaker. Formation of active heparanase was detected by determination of heparanase activity in DMB assay as described in patent application U.S. Pat. No. 6,190,875B.

β-FGF = molecular target: T3, β-FGF (Homo sapiens, UniProt P09038); test: Elisa assay for binding of β-FGF to heparin; conditions: inhibition of β-FGF binding to heparin
T3 construct: purchased Sigma F0291
T3 sequence (P09038 143-288): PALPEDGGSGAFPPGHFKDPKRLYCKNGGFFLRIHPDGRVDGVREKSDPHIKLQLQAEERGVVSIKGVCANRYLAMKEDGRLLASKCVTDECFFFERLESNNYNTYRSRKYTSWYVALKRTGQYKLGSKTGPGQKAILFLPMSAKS
Description: Elisa assay for determination of binding of β-FGF to heparin—96 well microplates were coated overnight with Heparin-albumin (Lizard) and blocked with 1% BSA in PBS with 0.05% Tween and 0.01% thimerosal for 2 hrs. β-FGF was added to the plates at a concentration of 0.8 ng/ml and incubated for 45 min at 23-25° C. The amount of β-FGF bound to heparin was detected using anti-FGF monoclonal antibody (Sigma Cat. # F6162) at a concentration of 2.5 ng/ml and secondary antibodies Sheep anti-mouse IgG linked to horseradish peroxidase (1:3000). TMB (Pierce Cat. #34021) was used as a substrate for peroxidase.
(§1) The plates were read at 450 nm with a reference wavelength of 630 nm using a VERSAmax plate reader. […] Percent inhibition was calculated as compared with the control reactions pre-incubated with 1% DMSO only.

VEGF = molecular target: T4, VEGF (Homo sapiens, UniProt P15692); test: Elisa assay for binding of VEGF to heparin; conditions: inhibition of VEGF binding to heparin
T4 sequence (P15692 27-191 isoform P15692-4): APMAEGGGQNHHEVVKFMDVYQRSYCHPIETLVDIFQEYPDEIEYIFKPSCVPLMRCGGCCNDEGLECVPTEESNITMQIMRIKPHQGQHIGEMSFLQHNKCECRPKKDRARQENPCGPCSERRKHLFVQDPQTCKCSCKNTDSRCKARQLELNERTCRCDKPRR
Description: Elisa assay for determination of binding of VEGF to heparin—96 well microplates were coated overnight with Heparin-albumin (Lizard) and blocked with 1% BSA in PBS with 0.05% Tween and 0.01% thimerosal for 2 hrs. VEGF was added to the plates at a concentration of 2 ng/ml and incubated for 45 min. at 23-25° C. The amount of VEGF bound to heparin was detected using anti-VEGF monoclonal antibody (Sigma Cat. # V4758) at a concentration of 0.26 μg/ml and secondary antibodies Sheep anti-mouse IgG linked to horseradish peroxidase (1:2000). TMB (Pierce Cat. #34021) was used as a substrate for peroxidase.
as §1

pro-heparanase (H60) [2] = molecular target: T1, pro-heparanase (H60); test: Pro-heparanase activation in a cell-based assay (293 cells, DMB assay); conditions: inhibition of pro-heparanase activation (H60); Table 15
HUVEC cells = test: Cord Formation Assay; assay type: cell-based; conditions: Homo sapiens; HUVEC cells on matrigel, 24 h; read-out: Inhibition of cord formation IC50
Description: (§2) Cord formation and cell migration assays were executed following explicit directives provided by the inventors of the present invention by the National Cancer Institute (Biological Testing Branch, Developmental Therapeutics Program, DCTD, NCI, Fairview Center, Suite 205, 1003 West 7th Street, Frederick, Md. 21701-8527).
Cord Formation Assay—Matrigel (60 μl of 10 mg/ml; Collaborative Lab # 35423) was placed in each well of an ice-cold 96-well plate. The plate was incubated at room temperature for 15 minutes and then transferred to 37° C. for 30 minutes to permit matrigel polymerization. Concomitantly with plate coating, HUVEC cells were diluted in EGM-2 (Clonetic # CC3162) at a concentration of 2×10^5 cells/ml. Each test compound was prepared at a 2 fold higher concentration than desired (5 concentration levels) using the same medium. Cells (500 μl) and 2× drug (500 μl) were mixed and 200 μl of this suspension were placed in duplicates on the polymerized matrigel. Following 24 h incubation, triplicate pictures were taken for each concentration using a Bioquant Image Analysis system. Drug effect (IC50) was assessed by comparing to untreated controls and measuring the length of cords formed and number of junctions.

HUVEC cell = test: Cell Migration Assay (Boyden chamber); assay type: cell-based; conditions: Homo sapiens, HUVEC cells, 5 h, read-out: Inhibition of chemotaxis IC50
Description: as §2
Cell Migration Assay—Migration was assessed using a 48-well Boyden chamber including 8 μm pore size collagen-coated (10 μg/ml rat tail collagen; Collaborative Laboratories) polycarbonate filters (Osmonics, Inc.). The bottom chamber wells included 27-29 μl of DMEM medium alone (baseline) or medium containing chemo-attractant (bFGF, VEGF or Swiss 3T3 cell conditioned medium). The top chambers included 45 μl of HUVEC cell suspension (1×10^6 cells/ml) prepared in DMEM+1% BSA with or without the test compound. Followinf 5 h of incubation at 37° C., the membrane was rinsed with PBS, fixed and stained in Diff-Quick solutions. The filter was placed on a glass slide with the migrated cells facing down and cells on top were removed using a Kimwipe. The testing was performed in 4-6 replicates where five fields were counted from each well. Negative unstimulated control values were subtracted from stimulated control and drug treated values. Data wad plotted as mean migrated cell±S.D. IC50 was calculated from the plotted data.

Heparanase = molecular target: T5, Heparanase (Homo sapiens, UniProt Q9Y251, K307R); test: Dimerization assay (H53 hetero-dimer formation, di-methyl-methylene-blue); assay type: biochemical
T5 sequence (Q9Y251 158-543 K307R limits assumed): T2 sequence (Q9Y251 158-543 K307R limits assumed)
T5 sequence (Q9Y251 36-109 limits assumed): T2 sequence (Q9Y251 36-109 limits assumed)
Excerpt: Dimerization assay—Activation assay using di-methyl-methylene-blue was effected as described in U.S. Pat. No. 6,190,875.

pro-heparanase (H60) [3] = molecular target: T1, pro-heparanase (H60); test: Circular dichroism spectrometry of pro-heparanase
Description: Circular Dichroism spectrometry—Circular Dichroism spectra were recorded using a JASCO 500 spetropolarimeter. Far Ultraviolet measurements (260-200 nm) were performed in a 0.1 mm demountable cuvette at 25° C., scanning at a rate of 10 nm/min. Pro-heparanase was assayed at a concentration of 0.72 mg/ml in 20 mM sodium phosphate buffer pH 6.8 supplemented with 300 mM NaCl. Effect of heparin on pro-heparanase spectra was determined at a concentration of 100 μM, and the inhibitor was added at a concentration of 15 μM. Base-line recordings were performed in the presence and absence of heparin to correct the pro-heparanase spectra.

[4] = inhibition of H53 hetero-dimer formation by H8-derived peptides, read-out: IC50 H53

CCCNC(=O)[C@H]1O[C@@H]1C(=O)N[C@H](C(=O)N1CCC[C@H]1C(=O)O)[C@@H](C)CC [CA-074]
IC50 (Cathepsin B): […] | activation of pro-heparanase in vitro (heparanase activity) (pro-heparanase (H60) [1]): inhibited this activation | % Inhibition (293 cell extract): 96%

O=C(O)CCCN1C(=O)C(=Cc2ccc(-c3cccc([N+](=O)[O-])c3)o2)SC1=S [Compound 4]
heparanase activity inhibition (H53) in addition to inhibition of pro-heparanase activation (heparanase (H53)): dual activity | IC50 (heparanase (H53)): 3 µM | IC50 (β-FGF): 53.4 µM | IC50 (VEGF): 17.8 µM | IC50 (pro-heparanase (H60) [2]): 0.16 µM

O=C(O)CCCN1C(=O)C(=Cc2ccc(-c3ccc(Cl)cc3)o2)SC1=S [Compound 6]
heparanase activity inhibition (H53) in addition to inhibition of pro-heparanase activation (heparanase (H53)): dual activity | IC50 (heparanase (H53)): 36 µM | IC50 (β-FGF): 23.9 µM | IC50 (HUVEC cells): 3.2 µM | IC50 (HUVEC cell): 4 µM | IC50 (VEGF): 17.8 µM | IC50 (pro-heparanase (H60) [2]): 0.87 µM

COCCCN1C(=O)C(=Cc2ccc(-c3ccc(Cl)cc3)o2)SC1=S [Compound 58]
IC50 (β-FGF): 0.2 µM | IC50 (VEGF): 0.2 µM | IC50 (pro-heparanase (H60) [2]): 0.92 µM

O=C1/C(=C\c2ccc(-c3ccccc3Cl)o2)SC(=S)N1C1CCS(=O)(=O)C1 (stereo not shown) [Compound 59]
IC50 (β-FGF): 0.4 µM | IC50 (HUVEC cells): 0.4 µM | IC50 (HUVEC cell): 0.25 µM | IC50 (VEGF): 0.4 µM | IC50 (pro-heparanase (H60) [2]): 0.24 µM

O=S(=O)(O)CCS(=O)(=O)O [Compound E2269, ethane-1,2-disulfonic acid]
processing of pro-heparanase in vitro (Western blot) (pro-heparanase (H60) [1]): allowed processing of the H60

CC(=O)N[C@H]1C(O)O[C@H](CO)[C@@H](O[C@@H]2OC(C(=O)O)=C[C@H](O)[C@H]2O)[C@@H]1O (stereo partly shown) [heparin disaccharide IVA]
processing of pro-heparanase in vitro (Western blot) (pro-heparanase (H60) [1]): allowed processing of the H60

CC(C)CC(=O)N[C@H](C(=O)N[C@H](C(=O)N[C@@H](CC(C)C)[C@@H](O)CC(=O)N[C@@H](C)C(=O)N[C@@H](CC(C)C)[C@@H](O)CC(=O)O)C(C)C)C(C)C [pepstatin] (Isovaleryl-VV[Sta]A[Sta]-OH)
processing of pro-heparanase in vitro (Western blot) (pro-heparanase (H60) [1]): No processing occurred | activation of pro-heparanase in vitro (heparanase activity) (pro-heparanase (H60) [1]): inhibited this activation | % Inhibition (293 cell extract): 0%

CTWHHYYLNGRTATR [Pep-25]
IC50 (Heparanase; H45-derived peptide, inhibition of H53 hetero-dimer formation, read-out: IC50 Heparanase): 21 µM

DPRFLILL [Compound P8-16]
IC50 (Heparanase; [4]): 6 µM

FLILLGSPKLRTL [Compound P8-8]
IC50 (Heparanase; [4]): 8 µM

LRTLARGLSPAYL [Compound P8-5]
IC50 (Heparanase; [4]): 18 µM

PRFLILL [Compound P8-11]
IC50 (Heparanase; [4]): 1.4 µM

PRFLILLGSPKLR [Compound P8-4]
IC50 (Heparanase; [4]): 2.3 µM

RFLILL [Compound P8-18]
IC50 (Heparanase; [4]): 5 µM

heparin [reference compound]
processing of pro-heparanase in vitro (Western blot) (pro-heparanase (H60) [1]): heparanase was processed by cathepsin D | conformational change in pro-heparanase (pro-heparanase (H60) [3]): significant conformational change
